Data from US20050192360A1, “Method of treatment of pancreatic cancer” (priority 1999, published 2005).
Structures can show the parent of a compound that is named as a salt. Where two headings read alike, the source gives them in different places.

Assays:
[1] = test system: xenografted Panc-1 human pancreatic tumors; assay: Human pancreatic cancer xenograft mouse model, monotherapy or combination with gemcitabine (Example 7); format: in vivo, male athymic nude (Ncr) mice; settings: for Tumor re-growth after termination of treatment: 19 days post-treatment observation
Protocol: Human pancreatic cancer Panc-1 cells (2×10^6) are implanted subcutaneously into male athymic nude (Ncr) mice. […] The combination therapy group receives β-lapachone and gemcitabine on the same day in each treatment. Following treatment, the animals are observed for an additional 19 days. Tumors are measured throughout the treatment and post-treatment periods.

normal cells = assay: In vitro experiments using cell lines of various tissue origins; format: cell-based
[2] = test system: E2F-1 protein in Paca-2 cells; assay: Western blot of E2F-1 protein expression; format: cell-based, human
Protocol: Cells are harvested and whole cell lysates were prepared and resolved by SDS/PAGE, then Western blots are prepared using E2F-1 antibody obtained from Santa Cruz Biotechnology (Santa Cruz, Calif.) and an enhanced chemiluminescence assay system (Amersham Pharmacia).

[3] = test system: xenografted Panc-1 human pancreatic tumors; format: in vivo, athymic female nude mice (Ncr); settings: 5 treatments
Protocol: Athymic female nude mice (Ncr) are inoculated subcutaneously with 4×10^6 human Panc-1 pancreatic cancer cells, and the tumors are allowed to grow to […] in size. The animals are randomized into three groups. […] Mean tumor volume is then analyzed.

Structure (SMILES) | Reduction of tumor size at termination of treatment ([1]; gemcitabine 120 mg/kg i.p., ten treatments every three days) | Tumor re-growth after termination of treatment ([1]; gemcitabine 120 mg/kg i.p.) | Toxicity to normal cells in vitro (normal cells) | Concentration at which E2F-1 protein is induced (lowest concentration tested) ([2]; 0.5 hours exposure) | E2F-1 protein expression (Western blot) ([2]; 0.5 hours exposure, 0.5, 2 or 4 μM) | Tumor regression at termination of treatment ([1]; β-lapachone alone 40 mg/kg i.p., ten treatments every three days) | Tumor re-growth after termination of treatment ([1]; β-lapachone alone 40 mg/kg i.p.) | Mean tumor volume ([3]; 40 mg/kg intraperitoneally every three days) | Mean tumor volume ([3]; 60 mg/kg intraperitoneally every three days)
Nc1ccn([C@@H]2O[C@H](CO)[C@@H](O)C2(F)F)c(=O)n1 [gemcitabine, 2′-deoxy-2′,2′-difluorocytidine monohydrochloride (β-isomer), reference compound] | 30-40% | 400% |  |  |  |  |  |  | 
CC1(C)CCC2=C(O1)c1ccccc1C(=O)C2=O [β-lapachone, 3,4-dihydro-2,2-dimethyl-2H-naphtho[1,2-b]pyran-5,6-dione] |  |  | relatively non-toxic | 0.5 µM | upregulated | 30-40% | no significant re-growth | reduced | reduced
